Patent US8309586B2, “Glucokinase activators and pharmaceutical compositions containing the same as an active ingredient” (LG Life Sciences Ltd., priority 2007, dated 2012)

System: Glucokinase known as hexokinase IV (human GK isoform 1, pancreas form and human GK isoform 2, liver form)
Assay: Glucokinase enzymatic activity assay (G6PDH-coupled, NADH absorbance at 340 nm)
Format: biochemical
Settings: 5 mM glucose, 1 mM ATP, 37 nM GK, 10 min at room temperature
Protocol: Glucokinase known as hexokinase IV (human GK isoform 1, pancreas form and human GK isoform 2, liver form) was cloned into an expression vector pET15 fx (Novagen Co.), transformed to E. coli BL21 (DE3) (Invitrogen Co.) strain, expressed, and purified using a nickel column. Then, the glucokinase obtained from dialysis was used in the following assay.
Glucokinase assay was performed by measuring absorbance according to the conventional manner. Briefly speaking, glucokinase converts the substrate glucose to glucose-6-phosphate under certain conditions, and glucose-6-phosphate dehydrogenase irreversibly converts glucose-6-phosphate to gluconate-6-phosphate. During this procedure, NADH is formed, and its absorbance is measured to calculate the enzymatic activity.
In the measurement of the enzymatic activity, each compound was diluted by two-fold from the maximum to the minimum concentrations, and 2 μl of each solution was added to 96 well UV plate (BD bioscience). 60 μl of the first mixture (final concentrations 25 mM Hepes, 25 mM KCl, 2 mM MgCl2, 1 mM DTT) was added, and thoroughly mixed. 38 μl of the enzyme mixture (final concentrations 1 mM ATP, 1 mM NAD, 5 mM glucose, 0.85U G6PDH, 37 nM GK) was added (final volume 100 μl), and the mixture was reacted for 10 min at room temperature. The absorbance of NADH was measured at 340 nm using a UV spectrometer (Molecular Device).
The enzyme activating abilities of the compounds according to the present invention are represented as AC1.5 (the compound concentration at which the enzymatic activity is increased by 1.5 times, nM), which is in the range of 0.001 uM to 30 uM or less, preferably 0.001 uM to 10 uM, more preferably 0.001 uM to 1 uM.

AC1.5 (the compound concentration at which the enzymatic activity is increased by 1.5 times)	Structure (SMILES)
6 nM	OCC[C@@H]1CSC(c2cc3cc(F)cc(NC4CCCC4)c3[nH]2)=N1 [Example 39, 2-[(R)-2-(7-cyclopentylamino-5-fluoro-1H-indol-2-yl)-4,5-dihydro-thiazol-4-yl]-ethanol]
35 nM	CCOC(=O)C[C@@H]1CSC(c2cc3cc(OC)cc(NC4CCCC4)c3[nH]2)=N1 [Example 49, [(R)-2-(7-cyclopentylamino-5-methoxy-1H-indol-2-yl)-4,5-dihydro-thiazol-4-yl]-acetic acid ethyl ester]
167 nM	COc1cc(NC2CCOCC2)c2[nH]c(C3=N[C@H](CC(=O)O)CS3)cc2c1 [Example 51, {(R)-2-[5-methoxy-7-(tetrahydro-pyran-4-ylamino)-1H-indol-2-yl]-4,5-dihydro-thiazol-4-yl}-acetic acid]
17 nM	COC(=O)C[C@@H]1CSC(c2cc3cc(Oc4cccnc4)cc(NC4CCCC4)c3[nH]2)=N1 [Example 56, {(R)-2-[7-cyclopentylamino-5-(pyridin-3-yloxy)-1H-indol-2-yl]-4,5-dihydro-thiazol-4-yl}-acetic acid methyl ester]
14 nM	COC(=O)C[C@@H]1CSC(c2cc3cc(Oc4cccnc4)cc(NC4CCOCC4)c3[nH]2)=N1 [Example 58, {(R)-2-[5-(pyridin-3-yloxy)-7-(tetrahydro-pyran-4-ylamino)-1H-indol-2-yl]-4,5-dihydro-thiazol-4-yl}-acetic acid methyl ester]
29 nM	COC(=O)C[C@@H]1CSC(c2cc3cc(C)cc(NC4CCCC4)c3[nH]2)=N1 [Example 60, [(R)-2-(7-cyclopentylamino-5-methyl-1H-indol-2-yl)-4,5-dihydro-thiazol-4-yl]acetic acid methyl ester]
36 nM	Cc1cc(NC2CCOCC2)c2[nH]c(C3=N[C@H](CC(=O)O)CS3)cc2c1 [Example 62, {(R)-2-[5-methyl-7-(tetrahydro-pyran-4-ylamino)-1H-indol-2-yl]-4,5-dihydro-thiazol-4-yl}-acetic acid]
31 nM	CS(=O)(=O)Cc1cc(NC2CCCC2)c2[nH]c(C3=N[C@H](CCN4CCOCC4)CS3)cc2c1 [Example 71, cyclopentyl-{5-methanesulfonylmethyl-2-[(R)-4-(2-morpholin-4-yl-ethyl)-4,5-dihydro-thiazol-2-yl]-1H-indol-7-yl}-amine]
14 nM	CNC(=O)C[C@@H]1CSC(c2cc3cc(Cl)cc(NC4CCCC4)c3[nH]2)=N1 [Example 76, 2-[(R)-2-(5-chloro-7-cyclopentylamino-1H-indol-2-yl)-4,5-dihydro-thiazol-4-yl]-N-methyl-acetamide]

More lines, now with the values behind:

Structure (SMILES)	AC1.5 (the compound concentration at which the enzymatic activity is increased by 1.5 times)
OCC[C@@H]1CSC(c2cc3cc(F)cc(NC4CCOCC4)c3[nH]2)=N1 [Example 41, 2-{(R)-2-[5-fluoro-7-(tetrahydro-pyran-4-ylamino)-1H-indol-2-yl]-4,5-dihydro-thiazol-4-yl}-ethanol]	17 nM
OCC[C@@H]1CSC(c2cc3cccc(NC4CCOCC4)c3[nH]2)=N1 [Example 46, 2-{(R)-2-[7-(tetrahydro-pyran-4-ylamino)-1H-indol-2-yl]-4,5-dihydro-thiazol-4-yl}-ethanol]	96 nM
COC(=O)C[C@@H]1CSC(c2cc3cc(OC)cc(NC4CCCC4)c3[nH]2)=N1 [Example 47, [(R)-2-(7-cyclopentylamino-5-methoxy-1H-indol-2-yl)-4,5-dihydro-thiazol-4-yl]-acetic acid methyl ester]	27 nM
COc1cc(NC2CCCC2)c2[nH]c(C3=N[C@H](CC(=O)O)CS3)cc2c1 [Example 48, [(R)-2-(7-cyclopentylamino-5-methoxy-1H-indol-2-yl)-4,5-dihydro-thiazol-4-yl]-acetic acid]	9 nM
COC(=O)C[C@@H]1CSC(c2cc3cc(OC)cc(NC4CCOCC4)c3[nH]2)=N1 [Example 50, {(R)-2-[5-methoxy-7-(tetrahydro-pyran-4-ylamino)-1H-indol-2-yl]-4,5-dihydro-thiazol-4-yl}-acetic acid methyl ester]	28 nM
CCCOc1cc(NC2CCCC2)c2[nH]c(C3=N[C@H](CC(=O)O)CS3)cc2c1 [Example 53, [(R)-2-(7-cyclopentylamino-5-propoxy-1H-indol-2-yl)-4,5-dihydro-thiazol-4-yl]-acetic acid]	97 nM
O=C(O)C[C@@H]1CSC(c2cc3cc(Oc4ccccc4)cc(NC4CCOCC4)c3[nH]2)=N1 [Example 55, {(R)-2-[5-phenoxy-7-(tetrahydro-pyran-4-ylamino)-1H-indol-2-yl]-4,5-dihydro-thiazol-4-yl}-acetic acid]	29 nM
O=C(O)C[C@@H]1CSC(c2cc3cc(Oc4cccnc4)cc(NC4CCCC4)c3[nH]2)=N1 [Example 57, {(R)-2-[7-cyclopentylamino-5-(pyridin-3-yloxy)-1H-indol-2-yl]-4,5-dihydro-thiazol-4-yl}-acetic acid]	21 nM
O=C(O)C[C@@H]1CSC(c2cc3cc(Oc4cccnc4)cc(NC4CCOCC4)c3[nH]2)=N1 [Example 59, {(R)-2-[5-(pyridin-3-yloxy)-7-(tetrahydro-pyran-4-ylamino)-1H-indol-2-yl]-4,5-dihydro-thiazol-4-yl}-acetic acid]	28 nM
Cc1cc(NC2CCC(=O)CC2)c2[nH]c(C3=N[C@H](CC(=O)O)CS3)cc2c1 [Example 63, {(R)-2-[5-methyl-7-(4-oxo-cyclohexylamino)-1H-indol-2-yl]-4,5-dihydro-thiazol-4-yl}-acetic acid]	119 nM
CS(=O)(=O)c1ccc(Oc2cc(NC3CCCC3)c3[nH]c(C4=N[C@H](CC(=O)O)CS4)cc3c2)cc1 [Example 64, {(R)-2-[7-cyclopentylamino-5-(4-methanesulfonyl-phenoxy)-1H-indol-2-yl]-4,5-dihydro-thiazol-4-yl}-acetic acid]	17 nM
COC(=O)C[C@@H]1CSC(c2cc3cc(COc4ccccc4)cc(NC4CCCC4)c3[nH]2)=N1 [Example 65, [(R)-2-(7-cyclopentylamino-5-phenoxymethyl-1H-indol-2-yl)-4,5-dihydro-thiazol-4-yl]-acetic acid methyl ester]	23 nM
CS(=O)(=O)Cc1cc(NC2CCCC2)c2[nH]c(C3=N[C@H](CC(=O)O)CS3)cc2c1 [Example 69, [(R)-2-(7-cyclopentylamino-5-methanesulfonylmethyl-1H-indol-2-yl)-4,5-dihydro-thiazol-4-yl]-acetic acid]	64 nM
CS(=O)(=O)Cc1cc(NC2CCCC2)c2[nH]c(C3=N[C@H](CCO)CS3)cc2c1 [Example 70, 2-[(R)-2-(7-cyclopentylamino-5-methanesulfonylmethyl-1H-indol-2-yl)-4,5-dihydro-thiazol-4-yl]-ethanol]	32 nM
CC(=O)N1CCN(CC[C@@H]2CSC(c3cc4cc(CS(C)(=O)=O)cc(NC5CCCC5)c4[nH]3)=N2)CC1 [Example 72, 1-(4-{2-[(R)-2-(7-cyclopentylamino-5-methanesulfonylmethyl-1H-indol-2-yl)-4,5-dihydro-thiazol-4-yl]-ethyl}-piperazin-1-yl)-ethanone]	51 nM
O=C(C[C@@H]1CSC(c2cc3cc(Cl)cc(NC4CCCC4)c3[nH]2)=N1)N1CCOCC1 [Example 73, 2-[(R)-2-(5-chloro-7-cyclopentylamino-1H-indol-2-yl)-4,5-dihydro-thiazol-4-yl]-1-morpholin-4-yl-ethanone]	25 nM
O=C(C[C@@H]1CSC(c2cc3cc(Cl)cc(NC4CCCC4)c3[nH]2)=N1)NCCN1CCOCC1 [Example 74, 2-[(R)-2-(5-chloro-7-cyclopentylamino-1H-indol-2-yl)-4,5-dihydro-thiazol-4-yl]-N-(2-morpholin-4-yl-ethyl)-acetamide]	14 nM
O=C(C[C@@H]1CSC(c2cc3cc(Cl)cc(NC4CCCC4)c3[nH]2)=N1)NCCCN1CCOCC1 [Example 75, 2-[(R)-2-(5-chloro-7-cyclopentylamino-1H-indol-2-yl)-4,5-dihydro-thiazol-4-yl]-N-(3-morpholin-4-yl-propyl)-acetamide]	21 nM
